The text below walks through data of patent publication US9540364B2, “Benzimidazole tetrahydrofuran derivatives” (Merck Sharp & Dohme Corp., priority 2012, dated 2017).

For assay [1], the target named is recombinant human AMPK complex 7 (containing α2β1γ1) (Homo sapiens (Human), UniProt P54646+Q9Y478). Nature of the assay: In vitro AMPK activation assay (AMPKSAMSF). In kind it is biochemical. Conditions: for EC50: inflection point reflecting 50% of the maximum activation; for Emax: recombinant human AMPK complex 7 (α2β1γ1), 10-point titration, read-out: % Maximum AMP Activation of human AMPK Complex 7. The method, then: The recombinant human AMPK complex 1 (containing α1β1γ1) or AMPK complex 7 (containing α2β1γ1) was obtained from baculovirus expression system. Recombinant viruses were generated by cotransfection of AMPK/pBacPak9 clones with Baculogold baculovirus DNA (Pharmingen) in spodoptera frugiperda 21 cells according to the manufacturer's instructions. Each round of virus amplification was performed for 5 days in Grace's medium containing 10% serum. Virus that had been subjected to three rounds of amplification was used for all protein production procedures. To express the AMPK complex, sf21 cells were adapted to serum free medium (SF900 II, Invitrogen) by sequential dilution from serum containing stocks into SF900II medium and maintained in shaker flasks at 90 rpm at 27° C. The recombinant AMPK enzyme complex was produced by triple infection, one recombinant virus for each of the subunits, in sf21 cells under serum free conditions. Cells were infected in log phase, 1×10^6 cells/ml, at a multiplicity of infection of ˜5. Cells were harvested by centrifugation at 10,000×g for 15 minutes after 72 hours of infection with viruses. The insect cell pellet from 2 liters of culture was resuspended in 50 ml lysis buffer (20 mM Tris-HCl, 50 mM NaCl, 50 mM NaF, 30 mM Na PPi, 0.25 M sucrose, 10 mM ZnCl2, 2 mM DTT, 0.4 mg/ml digitonin) and subjected to two cycles of freeze-thaw lysis in a dry-ice ethanol bath. Insoluble material was removed by centrifugation at 10,000×g and the supernatant was fractionated with use of polyethylene glycol (PEG). The protein fraction precipitating between 2.5 and 6% PEG was used for further purification using a Blue-Sepharose step (Zhou et al, J. Clin. Invest. 108, 1167-1174, 2001).
Sequence of recombinant human AMPK complex 7 (containing α2β1γ1) (P54646 whole entry): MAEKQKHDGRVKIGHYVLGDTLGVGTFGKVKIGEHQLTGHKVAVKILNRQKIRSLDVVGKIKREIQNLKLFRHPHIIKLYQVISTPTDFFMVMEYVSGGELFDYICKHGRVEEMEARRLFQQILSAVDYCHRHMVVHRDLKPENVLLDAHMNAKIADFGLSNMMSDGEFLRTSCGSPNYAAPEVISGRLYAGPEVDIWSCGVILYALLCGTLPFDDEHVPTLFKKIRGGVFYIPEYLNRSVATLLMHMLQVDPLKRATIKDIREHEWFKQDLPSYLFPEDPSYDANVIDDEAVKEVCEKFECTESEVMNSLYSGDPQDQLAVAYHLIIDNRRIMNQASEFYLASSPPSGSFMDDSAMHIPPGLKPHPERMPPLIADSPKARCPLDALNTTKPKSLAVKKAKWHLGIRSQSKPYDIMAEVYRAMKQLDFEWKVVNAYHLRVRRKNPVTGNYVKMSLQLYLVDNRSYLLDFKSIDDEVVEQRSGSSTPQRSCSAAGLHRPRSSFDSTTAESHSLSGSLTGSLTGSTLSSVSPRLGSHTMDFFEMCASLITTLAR
Sequence of recombinant human AMPK complex 7 (containing α2β1γ1) (Q9Y478 whole entry): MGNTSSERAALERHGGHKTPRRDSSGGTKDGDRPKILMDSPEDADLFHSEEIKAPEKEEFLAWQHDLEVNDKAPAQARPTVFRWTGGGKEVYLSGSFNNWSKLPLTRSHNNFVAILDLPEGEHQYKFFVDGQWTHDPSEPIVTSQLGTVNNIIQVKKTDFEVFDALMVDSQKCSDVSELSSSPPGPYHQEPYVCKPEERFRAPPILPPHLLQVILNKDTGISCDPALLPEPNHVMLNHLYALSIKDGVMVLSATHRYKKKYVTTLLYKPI
Sequence of recombinant human AMPK complex 7 (containing α2β1γ1) (P54619 whole entry partner): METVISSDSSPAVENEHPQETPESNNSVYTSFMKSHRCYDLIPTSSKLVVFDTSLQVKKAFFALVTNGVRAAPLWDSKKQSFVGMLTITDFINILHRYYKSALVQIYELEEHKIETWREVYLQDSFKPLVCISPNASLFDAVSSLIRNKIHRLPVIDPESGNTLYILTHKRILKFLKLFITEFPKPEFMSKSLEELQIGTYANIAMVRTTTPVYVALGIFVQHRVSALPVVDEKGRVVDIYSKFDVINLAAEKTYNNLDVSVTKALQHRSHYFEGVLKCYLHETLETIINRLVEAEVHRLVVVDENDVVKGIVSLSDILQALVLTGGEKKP
The in vitro AMPK activation assay is performed in a volume of 30 μl in a 384-well plate. Enzyme reactions were assembled in the microtiter plate by adding 15 μl of 2× enzyme in assay buffer (20 mM HEPES, pH 7.3, 5 mM MgCl2, 3 mM DTT, 0.01% Brij 35 and CamK Kinase, to activate AMPK) to wells which contained either DMSO or compound. The reaction was initiated with the addition of 15 μl 2× substrate mixture containing 200 μM ATP, and 3.0 μM fluorescently labeled SAMS (5-FAM-HMRSAMSGLHLVKRR-COOH) in assay buffer. After 45-minute incubation at 25° C., the reaction was stopped by the addition of 70 μl stop buffer (100 mM HEPES, pH 7.3, 40 mM EDTA, 0.015% Brij 35). Phosphorylated 5-FAM SAMS product is assessed using a Caliper EZ Reader LabChip microfluidics reader. Product conversion is determined by calculating the peak heights of the substrate and product and reporting the product/(product+substrate) peak ratio. The 10-point titration data were expressed as % maximum AMP activation. The results were plotted using 4 parameter fit and the inflection point reflecting 50% of the maximum activation was reported as the EC50.

For the next assay, the system named is ob/ob and db/db mice. Particulars: following 8 weeks of administration; cited from earlier work.

As usually defined, the EC50 is the concentration that produces a half-maximal response. In the case of `OC[C@H]1OC[C@@H](Oc2nc3cc(-c4ccc(-c5cccc(F)c5)cc4)c(Cl)cc3[nH]2)[C@@H]1O` [Example 2], in assay [1], the concentration giving a half-maximal response (EC50) amounted to 4290 nM and the Emax was found to be 137%. Consider `CC(CO)(CO)c1ccc(-c2ccc(-c3cc4nc(O[C@@H]5CO[C@H](CO)[C@H]5O)[nH]c4cc3Cl)cc2)cc1` [Example 8], for which, in assay [1], the 50% effective concentration (EC50) came to 5 nM and the Emax worked out at 278%. On to `N#Cc1ccc(-c2ccc(-c3c(F)cc4[nH]c(O[C@@H]5CO[C@H](CO)[C@H]5O)nc4c3F)cc2)c(F)c1` [Example 21], for which, in assay [1], the EC50 was determined as 38 nM and the Emax was 230%.

On to `CC(CO)(CO)c1ccc(-c2ccc(-c3c(F)cc4[nH]c(O[C@@H]5CO[C@H](CO)[C@H]5O)nc4c3F)cc2)cc1` [Example 16], for which, in assay [1], the EC50 is 6 nM and the Emax turned out to be 313%.

Take `OC[C@H]1OC[C@@H](Oc2nc3c(F)c(-c4ccc(-c5ccc(-n6cccn6)cc5)cc4)c(F)cc3[nH]2)[C@@H]1O` [Example 17]: in assay [1], the 50% effective concentration (EC50) came out at 20 nM and the Emax came out at 313%. `OC[C@H]1OC[C@@H](Oc2nc3cc(-c4ccc(-c5ccc(-n6ccnn6)cc5)cc4)c(Cl)cc3[nH]2)[C@@H]1O` [Example 7]: in assay [1], the EC50 came to 8 nM and the Emax turned out to be 233%. Turning to `Cc1cc(-c2ccc(-c3ccc(-c4c(F)cc5[nH]c(O[C@@H]6CO[C@H](CO)[C@H]6O)nc5c4F)cc3)cc2)[nH]n1` [Example 20], in assay [1], the EC50 is 50 nM and the Emax turned out to be 246%. With `Cc1cc(-c2ccc(-c3ccc(-c4cc5nc(O[C@@H]6CO[C@H](CO)[C@H]6O)[nH]c5cc4Cl)cc3)cc2)[nH]n1` [Example 4], in assay [1], the EC50 was found to be 104 nM and the Emax was found to be 172%. For the molecule `OC[C@H]1OC[C@@H](Oc2nc3c(F)c(-c4ccc(-c5ccc(C6CNCCO6)cc5)cc4)c(F)cc3[nH]2)[C@@H]1O` (stereo partly drawn) [Example 18], in assay [1], the EC50 came out at 34 nM and the Emax turned out to be 316%. `NC(=O)c1ncn([C@@H]2O[C@H](CO)[C@@H](O)[C@H]2O)c1N` [AICAR]: the blood glucose reduction in the assay with ob/ob and db/db mice is 35%. Regarding `OC[C@H]1OC[C@@H](Oc2nc3cc(-c4ccc(-c5ccc(-n6cccn6)cc5)cc4)c(Cl)cc3[nH]2)[C@@H]1O` [Example 9], in assay [1], the EC50 was 33 nM and the Emax came to 269%. Regarding `CNC(=O)c1ccc(-c2ccc(-c3c(F)cc4[nH]c(O[C@@H]5CO[C@H](CO)[C@H]5O)nc4c3F)cc2)cc1` [Example 14], in assay [1], the EC50 worked out at 4 nM and the Emax was 340%.

On to `OC[C@H]1OC[C@@H](Oc2nc3cc(-c4ccc(-c5ccc(C6CNCCO6)cc5)cc4)c(Cl)cc3[nH]2)[C@@H]1O` (stereo partly drawn) [Example 10], for which, in assay [1], the EC50 was 34 nM and the Emax is 210%.

For `CNC(=O)c1ccc(-c2ccc(-c3cc4nc(O[C@@H]5CO[C@H](CO)[C@H]5O)[nH]c4cc3Cl)cc2)cc1` [Example 3], in assay [1], the EC50 came to 8 nM and the Emax is 262%. Regarding `OC[C@H]1OC[C@@H](Oc2nc3c(F)c(-c4ccc(-c5ccc(-c6nccs6)cc5)cc4)c(F)cc3[nH]2)[C@@H]1O` [Example 19], in assay [1], the EC50 amounted to 67 nM and the Emax was 251%.

For the molecule `OC[C@H]1OC[C@@H](Oc2nc3c(F)c(-c4ccc(-c5ccc(-n6ccnn6)cc5)cc4)c(F)cc3[nH]2)[C@@H]1O` [Example 13], in assay [1], the half-maximal effective concentration (EC50) came to 5 nM and the Emax came out at 283%. Taken in the same sequence, the figures for `N#Cc1ccc(-c2ccc(-c3cc4nc(O[C@@H]5CO[C@H](CO)[C@H]5O)[nH]c4cc3Cl)cc2)c(F)c1` [Example 5] were 209 nM and 288%.

For the molecule `OC[C@H]1OC[C@@H](Oc2nc3c(F)c(-c4ccc(-c5ccc(-c6nccc(O)n6)cc5)cc4)c(F)cc3[nH]2)[C@@H]1O` [Example 15], in assay [1], the EC50 came out at 3 nM and the Emax was 299%. Taken in the same sequence, the figures for `OC[C@H]1OC[C@@H](Oc2nc3cc(-c4ccc(-c5ccc(-c6nccs6)cc5)cc4)c(Cl)cc3[nH]2)[C@@H]1O` [Example 12] were 76 nM and 170%. `OC[C@H]1OC[C@@H](Oc2nc3cc(-c4ccc(-c5ccccc5)cc4)c(Cl)cc3[nH]2)[C@@H]1O` [Example 1, (2R,3R,4R)-4-[[6-chloro-5-(4-phenylphenyl)-1H-benzimidazol-2-yl]oxy]-2-(hydroxymethyl)tetrahydrofuran-3-ol]: in assay [1], the concentration for a half-maximal effect (EC50) is 216 nM and the Emax amounted to 301%.
